Data from patent US20120156216A1, “Methods and Compositions for Treatment of Tumor Metastasis” (priority 2009, published 2012).

Tests used:
[1] = system: CTGF in M12 prostate cancer cells; assay: Suppression of endogenous CTGF by statins in M12 prostate cancer cells; format: cell-based, human; conditions: 1 μM, four days, FIG. 3A
Description: The effect of statins on the TGF-β- and CTGF-induced EMT in prostate cancer cells was further tested. Several stains are available with different pharmacokinetics and biotransformation rates. […] The hydrophilic statins are absorbed preferentially by the liver, where they inhibit production of cholesterol. More lipophilic statins are readily distributed to sites beyond the liver, where they inhibit intracellular synthesis of cholesterol. These different pharmacokinetic properties of statins may greatly influence effectiveness against advanced prostate cancer in vivo.

[2] = system: CTGF in MDA 231 breast cancer cells; assay: Suppression of endogenous CTGF by statins in MDA 231 breast cancer cells; format: cell-based, human; conditions: 1 μM, four days, FIG. 3B
[3] = system: CTGF and fibronectin in normal immortalized human lung fibroblasts; assay: Basal and TGF-β1-induced CTGF and fibronectin expression in stromal fibroblasts; format: cell-based
[4] = system: EMT markers in M12 prostate cancer cells; assay: CTGF-induced (AdCTGF) EMT marker expression in M12 prostate cancer cells, RT-PCR and Western immunoblot; format: cell-based, human
Description: In order to identify direct effect of CTGF on EMT induction in human cancer, an adenoviral expression vector was used. M12 (FIGS. 5 A-B) and M2182 (FIGS. 5 C-D) prostate cancer cells were infected with either an empty adenoviral constructs or an adenoviral vector expressing CTGF (AdCTGF) for either 18 hrs or 2 days to collect total RNAs for RT-PCR (FIGS. 5 A and C) and proteins for Western immunoblot analysis (FIGS. 5 B and D), respectively.
M12 (FIGS. 6 A-B) and M2182 (FIGS. 6 C-D) prostate cancer cells were infected with either an empty adenoviral construct (ADEV) or an adenoviral vector expressing CTGF (AdCTGF) for either 18 hrs or 2 days to collect total RNAs for RT-PCR (FIGS. 5 A and C) or proteins for Western immunoblot analysis (FIGS. 5 B and D), respectively.

[5] = system: radiation-induced CTGF in M12 prostate cancer cells; assay: Radiation-induced CTGF expression in M12 prostate cancer cells; format: cell-based, human; conditions: 1 μM, four days, FIG. 9A
Description: In an effort to determine the mechanism of radiation-induced adverse effects, such as radio-resistance and increased potential of metastasis in human cancer, M12 prostate cancer cells and BEAS-2B-CSC lung cancer cells were exposed to increasing amounts of radiation, ranging from 0 to 10 Grays (Gy). To detect protein expression for CTGF and CTGF-regulated protein fibronectin, M12 and BEAS-2B-CSC cells were harvested 3 days after irradiation, and culture media (CM) and cell lysates (CL) were separated by SDS-PAGE. Western immunoblotting was performed with antibodies specific for CTGF, fibronectin, and α-tubulin. […] As a control for protein loading, α-tubulin expression was also determined.
The ability of statins to inhibit radiation-induced CTGF expression was assessed in M12 prostate cancer cells and BEAS-2B-CSC lung cancer cells.

[6] = general statement on statins; cited from earlier work
[7] = stromal cells treated with TGF-β1 0 ng/ml to 25 ng/ml, 3 days, Western immunoblot, FIG. 4A

Row | Compound | suppression of CTGF [1] | suppression of CTGF [2] | suppression of radiation-induced CTGF expression [5] | solubility (fat soluble or water soluble) [6] | also measured
1 | CCC(C)(C)C(=O)O[C@H]1C[C@@H](C)C=C2C=C[C@H](C)[C@H](CC[C@@H]3C[C@@H](O)CC(=O)O3)[C@H]21 [simvastatin, 2,2-dimethyl-butanoic acid (1S,3R,7S,8S,8aR)-1,2,3,7,8,8a-hexahydro-3,7-dimethyl-8-[2-[(2R,4R)-tetrahydro-4-hydroxy-6-oxo-2H-pyran-2-yl]ethyl]-1-naphthalenyl ester] | significant suppression | significant suppression |  |  | basal CTGF expression ([3]; stromal fibroblasts, simvastatin 0.1 μM to 2.0 μM, 20 hours, semi-quantitative RT-PCR, FIG. 4B): suppression; epithelial marker E-cadherin expression ([4]; M12 cells, AdCTGF, 5 μM simvastatin, mRNA level and protein level, FIGS. 6 A-B): increase; adenoviral transduced IGFBP-rP2/CTGF expression ([4]; prostate cancer cells, simvastatin at concentrations, 2 μM, 4 μM, 5 μM): did not affect
2 | CC[C@H](C)C(=O)O[C@H]1C[C@@H](C)C=C2C=C[C@H](C)[C@H](CC[C@@H]3C[C@@H](O)CC(=O)O3)[C@H]21 [lovastatin, 2(S)-2-methyl-butanoic acid (1S,3R,7S,8S,8aR)-1,2,3,7,8,8a-hexahydro-3,7-dimethyl-8-[2-[(2R,4R)-tetrahydro-4-hydroxy-6-oxo-2H-pyran-2-yl]ethyl]-1-na-phthalenyl ester] | significant suppression | significant suppression | significant suppression | more fat soluble | 
3 | CC(C)n1c(/C=C/[C@@H](O)C[C@@H](O)CC(=O)O)c(-c2ccc(F)cc2)c2ccccc21 (relative stereo) [fluvastatin, (3R,5S,6E)-rel-7-[3-(4-fluorophenyl)-1-(1-methylethyl)-1H-indol-2-yl]-3,5--dihydroxy-6-heptenoic acid] |  |  |  | more fat soluble | 
4 | CC[C@H](C)C(=O)O[C@H]1C[C@H](O)C=C2C=C[C@H](C)[C@H](CC[C@@H](O)C[C@@H](O)CC(=O)O)[C@H]21 [pravastatin] | significant suppression | significant suppression | significant suppression | more water soluble | 
5 | CCC(C)C(=O)OC1CCC=C2C=C[C@H](C)[C@H](CC[C@@H]3CC(O)CC(=O)O3)[C@H]21 (stereo partly drawn) [mevastatin, ((1S,7S,8S,8aR)-8-{2-[(2R,4R)-4-hydroxy-6-oxotetrahydro-2H-pyran-2-yl]ethyl}-7-methyl-1,2,3,7,8,8a-hexahydronaphthalen-1-yl (2S)-2-methylbutanoate);] |  |  |  | more water soluble | 
6 | TGF-β1: transforming growth factor beta, potent inducer of CTGF, used to treat stromal fibroblasts |  |  |  |  | production of CTGF ([3]; TGF-β1 at 10 ng/ml, FIG. 4A): robust production; expression of CTGF [3, 7]: significantly increased; expression of fibronectin [3, 7]: significantly increased
